Source: US5736565A, “Therapeutic compounds suitable for the treatment of diseases connected with glutathione deficiency, process for their preparation, and pharmaceutical compositions containing same” (Prospa B.V., priority 1992, dated 1998)
Several values for one entry are separate records, joined by “and”; a condition that tells them apart may be missing. Equal entries are not always repeated.

Tests used:
hepatic GSH [1] = assay: Test No. 1: protection from ethanol acute administration, hepatic GSH content; assay type: in vivo, male albino Wistar rats; set-up: GSH Content: unit not given beside the values; conditions: liver; ethanol 3 g/kg i.p.; test substance 50 mg/kg
Experimental: Protection from ethanol acute administration […] Male albino Wistar rats weighing between 180 and 230 g were used. All animals were fasted for 24 hours prior to administration of isotonic solution, ethanol or ethanol combined with the test substances. As concerns the test substances, rats were intraperitoneally (i.p.) injected with compound of formula I (R=CH3) at doses of 10, 30, and 50 mg/kg and, for purposes of comparison, with the single constituents of compound (I) (R=CH3), […] (O-PRO) and L-cysteine (CIS), both at a 50 mg/kg dose. One hour after administration of the test substance, ethanol was injected i.p. at the dose of 3 g/kg. Thirty minutes later, the animals were sacrificed by decapitation and their liver was excised. […] Orwar et al., J. Chromatrogr., 556, 39-55 (1991).

DCP toxicity in the rat = assay: Test No. 4: dichloropropane (DCP) intoxication in vivo, death rate and signs; set-up: key to animal 4, symbol in GSH table: --: dead; conditions: DCP + 250 mg/kg i.p.
Experimental: (§1) A test was carried out in vivo on four groups of four rats each, using, as a toxic substance, dichloropropane (DCP), the main constituent of several solvents. DCP is noxious both by ingestion and inhalation and has a notable toxicity to the liver, mediated by an almost total depletion of thiol groups, including those of GSH.
(§2) The experimental model involves the study of the effect of DCP toxicity in the rat, in respect of glutathione (GSH) concentration in the main target tissue: the liver.
(§3) Tests were carried out on four groups of rats. The first group of animals was administered 2 ml DCP/kg dissolved in oil (40% v/v) per os. Twenty-four hours after DCP administration, blood samples were taken for SGPT measurement, while the animals were sacrificed; small portions of liver were then excised and immediately deproteinized by homogenization in 6% PCA. The chromatographic analyses of GSH and GSSG (oxidized glutathione) were performed.
(§4) The second group of animals was treated with the test drug (600 mg/kg i.p.) two hours after DCP administration. The third and fourth groups were treated with N-acetyl-cysteine (NAC) (250 mg/kg i.p.) and, respectively, with glutathione (Tationil^R) (600 mg/kg i.p.).

hepatic GSH [2] = assay: Test No. 4: dichloropropane (DCP) intoxication in vivo, hepatic GSH; set-up: species or system rat; conditions: for normalization of hepatic GSH (in words): DCP-treated rats
Experimental: as §1, §2, §3, §4
An evaluation of the protective action of the test drug in respect of glutathione involvement in hepatic protection mechanisms was thus possible.

Row | SMILES | GSH Content (hepatic GSH [1]) | animal 4, symbol in GSH table (DCP toxicity in the rat) | normalization of hepatic GSH (in words) (hepatic GSH [2]) | GSH, average values (hepatic GSH [2]; liver, DCP 2 ml/kg per os + 250 mg/kg i.p.) [nmol/mg protein] | GSH, individual animals (hepatic GSH [2]; liver, DCP 2 ml/kg per os + 250 mg/kg i.p., animals 1-3, 250 mg/kg)
1 | O=C1CC[C@@H](C(=O)O)N1 [O-PRO, 5-oxy-L-proline, reference compound] | 3.4 ± 0.3 |  |  |  | 
2 | N[C@@H](CS)C(=O)O [CIS, L-cysteine, reference compound] | 2.7 ± 0.3 |  |  |  | 
3 | CC(=O)N[C@@H](CS)C(=O)O [NAC, N-acetyl-L-cysteine, reference compound] |  | -- | could not normalize the values of hepatic GSH | 2.4 | 2.0 nmol/mg protein and 2.9 nmol/mg protein and 2.3 nmol/mg protein
4 | N[C@@H](CCC(=O)N[C@@H](CS)C(=O)NCC(=O)O)C(=O)O [GSH, glutathione] | 3.5 ± 0.6 |  | could not normalize the values of hepatic GSH |  | 
